# According to patent US4199598A, “Method of treating noradrenaline dysfunction or for dopamine-β-hydroxylase inhibition” (Richter Gedeon Vegyeszeti Gyar Rt., priority 1976, dated 1980):
# Columns and labels:
# dopamine-β-hydroxylase [1] = details: in words, prior art; cited from earlier work
# dopamine-β-hydroxylase [2] = test: Noradrenaline content of spleen (dopamine-β-hydroxylase inhibiting effect); assay type: in vivo, male Wister rats; details: Rattus norvegicus, ip, read-out: Amine level, spleen NA (noradrenaline)
# Method: (§1) The dopamine-β-hydroxylase inhibiting effects of the compounds according to the invention were examined by the following tests:
# (§2) The tests were performed on male Wister rats weighing 150 to 200 g. The dopamine-β-hydroxylase inhibiting effects of the compounds were evaluated by determining the change of noradrenaline, dopamine and adrenaline levels of the cerebrum, heart, spleen and adrenal gland. The serotonine and 5-hydroxy-indolyl-acetic acid levels of the cerebrum were also determined. The measurements were performed as follows:
# (§3) The animals were decapitated, the cerebrum, heart, spleen and adrenal gland were removed quickly, and the organs were frozen by placing them onto a metal sheet cooled with dry ice. The frozen organs were stored for a maximum of one night at -20° C.
# (§4) Determination of the noradrenaline content of heart and spleen
# (§5) The organs were weighed in frozen state and then homogenized in 5.0 ml of 0.4 N perchloric acid containing 0.05% of EDTA-Na2 and 0.1% of Na2 S2 O5. The homogenized mixtures were centrifuged as described above for the treatment of adrenal gland, the supernatants were decanted, and the pH was adjusted to 8.0±0.1 with a 0.1 molar tris buffer containing 20 g/l of NaOH and 25 g/l of EDTA-Na2. 100 mg of prepared Al2 O3 (Anton et al: J. Pharm. Ther., Vol. 138, p. 360, 1962) were added to the samples, and the mixtures were shaken mechanically for 20 minutes. Thereafter the Al2 O3 were washed with 2.10 ml of distilled water, and the noradrenaline was eluted with 1.0 ml of 0.05 N perchloric acid. 0.5 ml samples of the eluate were applied for the determination of noradrenaline.
# (§6) Noradrenaline was determined according to the method of Shellenberger et al (Anal. Biochem., Vol. 39, p. 356, 1971), with the following modifications of the basic procedure: 0.5 ml of 0.1 molar Na-K-phosphate buffer, containing 9 g/l of EDTA-Na2, were added to 0.5 ml of the eluate, and the catecholamines (noradrenaline in the examination of heart and spleen and noradrenaline and dopamine in the examination of the cerebrum) were oxidized with 0.1 ml of a 0.1 N iodine solution in 5% potassium iodide. […] Thereafter the samples were placed for 5 minutes in a drying oven heated to 100° C., and then the samples were cooled with ice water. The fluorescence of noradrenaline was measured with an OPTON spectrophotometer at wavelengths of 390 nm (excitation) and 490 nm (emission).
# (§7) In the tests disulfiram, 2,2-dipyridyl, bis(1-methyl-4-homopiperazinyl-thiocarbonyl)-disulfide, sodium diethyldithiocarbamate and N-phenyl-N'-(2-thiazolyl)-thiourea were used as reference substances. The values indicated in Table 1 are percentages in relation to the amine levels of the controls measured in the same tests (± Standard Error). The statistical calculations were performed on a TPA/i type computer, using Student's test.
# dopamine-β-hydroxylase [3] = test: Adrenaline content of adrenal gland (dopamine-β-hydroxylase inhibiting effect); assay type: in vivo, male Wister rats; details: Rattus norvegicus, ip, read-out: Amine level, adrenal gland AD (adrenaline)
# Method: as §1, §2, §3
# Determination of the adrenaline content of adrenal gland
# The adrenal glands were freed from fat and homogenized in 3.0 ml of ice-cold 0.4 N perchloric acid. The homogenized mixtures were centrifuged for 10 minutes at 0° C. with a speed of 3200 r.p.m. on a Janetzky K-70 type centrifuge. 0.05 ml samples were taken from the supernatant, and the adrenaline level was determined directly by the method of Laverty et al (Anal. Biochem., Vol. 22, p. 269, 1968).
# as §7
# dopamine-β-hydroxylase [4] = test: Noradrenaline, dopamine, serotonine and 5-hydroxy-indolylacetic acid contents of cerebrum (dopamine-β-hydroxylase inhibiting effect); assay type: in vivo, male Wister rats; details: Rattus norvegicus, ip
# Method: as §1, §2, §3, §6
# Determination of the noradrenaline, dopamine, serotonine and 5-hydroxy-indolylacetic acid contents of cerebrum
# The brains were homogenized in 10 parts by volume of 0.4 N perchloric acid. The homogenized mixture was stored at -20° C. overnight; thereafter it was thawed and centrifuged as described above. A sample of homogenized mixture corresponding to 0.5 g of brain was removed, the pH of the sample was adjusted to 8.0±0.1 with 0.1 molar tris-buffer of the above composition, and the sample was processed as described above for the determination of the noradrenaline content of heart and spleen, with the difference that 1.5 ml of 0.05 N perchloric acid were applied as eluting agent. 0.5 ml of the eluate were applied to determine the noradrenaline and dopamine content. The measurement was performed as described above, with the difference that samples of 0.5 ml were applied for the recording of the fluorescence of noradrenaline. The residue was placed for 50 minutes into a drying oven heated to 100° C.; thereafter the sample was cooled with ice water, and the fluorescence of dopamine was recorded at wavelengths of 325 nm (excitation) and 380 nm (emission).
# In a further test series the serotonine and 5-hydroxy-indolylacetic acid contents were also determined, in addition to the determination of the noradrenaline and dopamine contents, from the same sample. In this instance the brains were homogenized in 10 ml of 75% ethanol, 0.2 ml of EDTA-Na2 and 5% of ascorbic acid were added to the homogenized mixtures, and the homogenized mixtures were maintained at -20° C. overnight. The mixtures were then centrifuged as described above, and 5.0 ml samples of the supernatant were removed. The samples were diluted with equal volumes of distilled water, and poured onto ion-exchange columns of 0.5×1.5 cm dimensions, filled with buffered Amberlite CG-30 (200 to 400 mesh). The columns were washed with 5 ml of distilled water followed with 1.0 ml of 0.2 N hydrochloric acid, and the first effluent and the aqueous wash were collected for the determination of 5-hydroxy-indolylacetic acid. Elution was continued with further 1.2 ml of 0.2 N hydrochloric acid in order to remove noradrenaline, dopamine and serotonine. Samples of 0.3 ml were used for the determinations. […]
# in vivo = details: mouse, ip
# dopamine-β-hydroxylase [5] = test: Noradrenaline content of heart (dopamine-β-hydroxylase inhibiting effect); assay type: in vivo, male Wister rats; details: Rattus norvegicus, ip, read-out: Amine level, heart NA (noradrenaline)
# Method: as §1, §2, §3, §4, §5, §6, §7
# [6] = rats, i.p., 4 hours, ± Standard Error
# [7] = rats, i.p., 200 mg/kg, 4 hours, ± Standard Error
# [8] = rats, i.p., 4 hours, ± Standard Error, read-out: Amine level, cerebrum DA (dopamine)
# [9] = rats, i.p., 4 hours, ± Standard Error, read-out: Amine level, cerebrum NA (noradrenaline)
# [10] = rats, i.p., 4 hours, ± Standard Error, read-out: Amine level, cerebrum SE (serotonine)
# [11] = rats, i.p., 200 mg/kg, 4 hours, ± Standard Error, read-out: Amine level, cerebrum DA (dopamine)
# [12] = rats, i.p., 200 mg/kg, 4 hours, ± Standard Error, read-out: Amine level, cerebrum NA (noradrenaline)
# [13] = rats, i.p., 200 mg/kg, 4 hours, ± Standard Error, read-out: Amine level, cerebrum SE (serotonine)
# [14] = 4 h, read-out: Amine level, cerebrum DA (dopamine)
# [15] = 4 h, read-out: Amine level, cerebrum NA (noradrenaline)
# [16] = 4 h, read-out: Amine level, cerebrum SE (serotonine)
smiles,measurement,setting,value
NOCc1ccccc1 [Benzyloxyamine],dopamine-β-hydroxylase inhibiting effects,dopamine-β-hydroxylase [1],exert dopamine-β-hydroxylase inhibiting effects
same,duration of activity,dopamine-β-hydroxylase [1],exert their activities for a short period
"COCCNC1=C(C(=S)S)CCC1 [Compound M-1, 2-(N-methoxyethyl)-amino-cyclopent-1-ene-dithiocarboxylic acid]",response vs control in vivo at 100 mg/kg,dopamine-β-hydroxylase [2]; [6],77.1 ± 8.9%
same,response vs control in vivo at 200 mg/kg,dopamine-β-hydroxylase [2]; [7],110 ± 14.1%
same,response vs control in vivo at 100 mg/kg,dopamine-β-hydroxylase [3]; [6],106 ± 6.1%
same,response vs control in vivo at 200 mg/kg,dopamine-β-hydroxylase [3]; [7],91.5 ± 4.7%
same,response vs control in vivo at 100 mg/kg,dopamine-β-hydroxylase [4]; [8],107 ± 4.7%
same,response vs control in vivo at 100 mg/kg,dopamine-β-hydroxylase [4]; [9],63.4 ± 3.6%
same,response vs control in vivo at 100 mg/kg,dopamine-β-hydroxylase [4]; [10],116 ± 4.7%
same,response vs control in vivo at 200 mg/kg,dopamine-β-hydroxylase [4]; [11],122 ± 6.7%
same,response vs control in vivo at 200 mg/kg,dopamine-β-hydroxylase [4]; [12],64.2 ± 3.4%
same,response vs control in vivo at 200 mg/kg,dopamine-β-hydroxylase [4]; [13],107 ± 2.7%
same,response vs control in vivo at 200 mg/kg,"dopamine-β-hydroxylase [4]; rats, i.p., 200 mg/kg, 4 hours, ± Standard Error, read-out: Level, cerebrum 5-HIAA (5-hydroxy-indolylacetic acid)",141 ± 12.3%
same,LD50,in vivo,~400 mg/kg
same,response vs control in vivo at 100 mg/kg,dopamine-β-hydroxylase [5]; [6],106 ± 10.3%
same,response vs control in vivo at 200 mg/kg,dopamine-β-hydroxylase [5]; [7],110 ± 7.4%
"CC(C)CCNC1=C(C(=S)S)CCC1 [Compound M-3, 2-(N-isoamyl)-amino-cyclopent-1-ene-dithiocarboxylic acid]",response vs control in vivo at 100 mg/kg,dopamine-β-hydroxylase [2]; [6],48.2 ± 9.5%
same,response vs control in vivo at 200 mg/kg,dopamine-β-hydroxylase [2]; [7],135 ± 17%
same,response vs control in vivo at 100 mg/kg,dopamine-β-hydroxylase [3]; [6],86.2 ± 4.5%
same,response vs control in vivo at 200 mg/kg,dopamine-β-hydroxylase [3]; [7],73.5 ± 2.2%
same,response vs control in vivo at 100 mg/kg,dopamine-β-hydroxylase [4]; [8],103 ± 4.1%
same,response vs control in vivo at 100 mg/kg,dopamine-β-hydroxylase [4]; [9],75.2 ± 1.7%
same,response vs control in vivo at 100 mg/kg,dopamine-β-hydroxylase [4]; [10],108 ± 5.7%
same,response vs control in vivo at 200 mg/kg,dopamine-β-hydroxylase [4]; [11],114 ± 2.7%
same,response vs control in vivo at 200 mg/kg,dopamine-β-hydroxylase [4]; [12],68.8 ± 2.4%
same,response vs control in vivo at 200 mg/kg,dopamine-β-hydroxylase [4]; [13],98.2 ± 3.9%
same,response vs control in vivo at 100 mg/kg,dopamine-β-hydroxylase [5]; [6],86.9 ± 5.9%
same,response vs control in vivo at 200 mg/kg,dopamine-β-hydroxylase [5]; [7],131 ± 4.4%
"S=C(Nc1ccccc1)Nc1nccs1 [Compound U-14624, N-phenyl-N'-(2-thiazolyl)-thiourea, reference compound]",response vs control in vivo at 200 mg/kg,dopamine-β-hydroxylase [2]; 4 h,111%
same,response vs control in vivo at 200 mg/kg,dopamine-β-hydroxylase [3]; 4 h,72%
same,response vs control in vivo at 200 mg/kg,dopamine-β-hydroxylase [4]; [14],121%
same,response vs control in vivo at 200 mg/kg,dopamine-β-hydroxylase [4]; [15],31.6%
same,response vs control in vivo at 200 mg/kg,dopamine-β-hydroxylase [4]; [16],137%
same,response vs control in vivo at 200 mg/kg,"dopamine-β-hydroxylase [4]; 4 h, read-out: Level, cerebrum 5-HIAA (5-hydroxy-indolylacetic acid)",175%
same,response vs control in vivo at 200 mg/kg,dopamine-β-hydroxylase [5]; 4 h,106%
"CCN(CC)C(=S)S [DDC-Na, sodium diethyldithiocarbamate, reference compound]",response vs control in vivo at 400 mg/kg,dopamine-β-hydroxylase [4]; [14],120%
same,response vs control in vivo at 400 mg/kg,dopamine-β-hydroxylase [4]; [15],64.1%
"CCN(CC)C(=S)SSC(=S)N(CC)CC [DS, bis(diethylthiocarbamoyl)-disulfide, reference compound]",dopamine-β-hydroxylase inhibiting effects,dopamine-β-hydroxylase [1],strong dopamine-β-hydroxylase inhibiting effects
same,response vs control in vivo at 200 mg/kg,dopamine-β-hydroxylase [3]; 4 h,52%
same,response vs control in vivo at 400 mg/kg,dopamine-β-hydroxylase [3]; 4 h,66%
same,response vs control in vivo at 200 mg/kg,dopamine-β-hydroxylase [4]; [14],111%
same,response vs control in vivo at 400 mg/kg,dopamine-β-hydroxylase [4]; [14],112%
same,response vs control in vivo at 200 mg/kg,dopamine-β-hydroxylase [4]; [15],22.5%
same,response vs control in vivo at 400 mg/kg,dopamine-β-hydroxylase [4]; [15],24.1%
same,response vs control in vivo at 200 mg/kg,dopamine-β-hydroxylase [4]; [16],122%
same,response vs control in vivo at 400 mg/kg,dopamine-β-hydroxylase [4]; [16],117%
same,response vs control in vivo at 200 mg/kg,dopamine-β-hydroxylase [5]; 4 h,98%
same,response vs control in vivo at 400 mg/kg,dopamine-β-hydroxylase [5]; 4 h,102%
"CCCCc1ccc(C(=O)O)nc1 [Fusaric acid, 5-butyl-picolinic acid]",dopamine-β-hydroxylase inhibiting effects,dopamine-β-hydroxylase [1],strong dopamine-β-hydroxylase inhibiting effects
"NNc1nncc2ccccc12 [Hydralazine, hydralazine]",dopamine-β-hydroxylase inhibiting effects,dopamine-β-hydroxylase [1],possess dopamine-β-hydroxylase inhibiting effects
O=C(CO)c1coc(=O)c2c(O)cccc12 [Oosponol],dopamine-β-hydroxylase inhibiting effects,dopamine-β-hydroxylase [1],strong dopamine-β-hydroxylase inhibiting effects
CC(N)Cc1ccccc1 (centres unmarked) [amphetamine],dopamine-β-hydroxylase inhibiting effects,dopamine-β-hydroxylase [1],possess dopamine-β-hydroxylase inhibiting effects
NNCc1ccccc1 [benzylhydrazine],dopamine-β-hydroxylase inhibiting effects,dopamine-β-hydroxylase [1],exert dopamine-β-hydroxylase inhibiting effects
same,duration of activity,dopamine-β-hydroxylase [1],exert their activities for a short period
CCN(CC)C(=S)S [diethyl dithiocarbamate],dopamine-β-hydroxylase inhibiting effects,dopamine-β-hydroxylase [1],strong dopamine-β-hydroxylase inhibiting effects
Cn1cc[nH]c1=S [methimazol],dopamine-β-hydroxylase inhibiting effects,dopamine-β-hydroxylase [1],possess dopamine-β-hydroxylase inhibiting effects
